# The NIST ThermoML archive (doi:10.1021/je700350b)
# Numbers after ± are expanded uncertainties.
# Test: xn = mol fraction of the nth substance listed
# Settings: for surface tension liquid-gas: Ring tensiometer; for binary diffusion coefficient: 101 kPa, Taylor dispersion method; for binary diffusion coefficient / viscosity: Liquid; for viscosity: 101.33 kPa
structure (smiles),measurement,setting,value
CCN(CC)CCO [(diethylamino)ethanol] + O,surface tension liquid-gas,"283.15 K, x1 = 0.00104",62.91 ± 2 mN/m
same,surface tension liquid-gas,"283.15 K, x1 = 0.00111",62.83 ± 2 mN/m
same,surface tension liquid-gas,"283.15 K, x1 = 0.0013",62.32 ± 2 mN/m
same,surface tension liquid-gas,"283.15 K, x1 = 0.00336",55.32 ± 1.8 mN/m
same,surface tension liquid-gas,"283.15 K, x1 = 0.00503",54.03 ± 1.7 mN/m
same,surface tension liquid-gas,"283.15 K, x1 = 0.00679",50.98 ± 1.6 mN/m
same,surface tension liquid-gas,"283.15 K, x1 = 0.02372",43.65 ± 1.4 mN/m
same,surface tension liquid-gas,"283.15 K, x1 = 0.03998",39.05 ± 1.2 mN/m
same,surface tension liquid-gas,"283.15 K, x1 = 0.06011",37.17 ± 1.2 mN/m
same,surface tension liquid-gas,"283.15 K, x1 = 0.07276",36.26 ± 1.1 mN/m
same,surface tension liquid-gas,"283.15 K, x1 = 0.1253",34.78 ± 1.1 mN/m
same,surface tension liquid-gas,"283.15 K, x1 = 0.1749",33.38 ± 1.1 mN/m
same,surface tension liquid-gas,"283.15 K, x1 = 0.2503",32.74 ± 1 mN/m
same,surface tension liquid-gas,"283.15 K, x1 = 0.3515",31.85 ± 1 mN/m
same,surface tension liquid-gas,"283.15 K, x1 = 0.4018",31.32 ± 0.98 mN/m
same,surface tension liquid-gas,"283.15 K, x1 = 0.5038",31.02 ± 0.97 mN/m
same,surface tension liquid-gas,"283.15 K, x1 = 0.608",30.63 ± 0.96 mN/m
same,surface tension liquid-gas,"283.15 K, x1 = 0.712",30.36 ± 0.95 mN/m
same,surface tension liquid-gas,"283.15 K, x1 = 0.7503",30.08 ± 0.94 mN/m
same,surface tension liquid-gas,"283.15 K, x1 = 0.8542",29.69 ± 0.93 mN/m
same,surface tension liquid-gas,"283.15 K, x1 = 1",28.79 ± 0.9 mN/m
same,surface tension liquid-gas,"288.15 K, x1 = 0.00104",62.06 ± 1.9 mN/m
same,surface tension liquid-gas,"288.15 K, x1 = 0.00111",61.98 ± 1.9 mN/m
same,surface tension liquid-gas,"288.15 K, x1 = 0.0013",61.47 ± 1.9 mN/m
same,surface tension liquid-gas,"288.15 K, x1 = 0.00336",54.27 ± 1.7 mN/m
same,surface tension liquid-gas,"288.15 K, x1 = 0.00503",53.11 ± 1.6 mN/m
same,surface tension liquid-gas,"288.15 K, x1 = 0.00679",49.93 ± 1.6 mN/m
same,surface tension liquid-gas,"288.15 K, x1 = 0.02372",42.61 ± 1.3 mN/m
same,surface tension liquid-gas,"288.15 K, x1 = 0.03998",38.43 ± 1.2 mN/m
same,surface tension liquid-gas,"288.15 K, x1 = 0.06011",36.56 ± 1.1 mN/m
same,surface tension liquid-gas,"288.15 K, x1 = 0.07276",35.84 ± 1.1 mN/m
same,surface tension liquid-gas,"288.15 K, x1 = 0.1253",34.38 ± 1.1 mN/m
same,surface tension liquid-gas,"288.15 K, x1 = 0.1749",32.58 ± 1 mN/m
same,surface tension liquid-gas,"288.15 K, x1 = 0.2503",32.22 ± 1 mN/m
same,surface tension liquid-gas,"288.15 K, x1 = 0.3515",31.24 ± 0.98 mN/m
same,surface tension liquid-gas,"288.15 K, x1 = 0.4018",30.72 ± 0.96 mN/m
same,surface tension liquid-gas,"288.15 K, x1 = 0.5038",30.62 ± 0.96 mN/m
same,surface tension liquid-gas,"288.15 K, x1 = 0.608",30.23 ± 0.95 mN/m
same,surface tension liquid-gas,"288.15 K, x1 = 0.712",29.96 ± 0.94 mN/m
same,surface tension liquid-gas,"288.15 K, x1 = 0.7503",29.69 ± 0.93 mN/m
same,surface tension liquid-gas,"288.15 K, x1 = 0.8542",29.3 ± 0.92 mN/m
same,surface tension liquid-gas,"288.15 K, x1 = 1",28.39 ± 0.89 mN/m
same,surface tension liquid-gas,"293.15 K, x1 = 0.00104",61.43 ± 1.9 mN/m
same,surface tension liquid-gas,"293.15 K, x1 = 0.00111",61.34 ± 1.9 mN/m
same,surface tension liquid-gas,"293.15 K, x1 = 0.0013",60.62 ± 1.9 mN/m
same,surface tension liquid-gas,"293.15 K, x1 = 0.00336",53.43 ± 1.6 mN/m
same,surface tension liquid-gas,"293.15 K, x1 = 0.00503",52.35 ± 1.6 mN/m
same,surface tension liquid-gas,"293.15 K, x1 = 0.00679",48.58 ± 1.5 mN/m
same,surface tension liquid-gas,"293.15 K, x1 = 0.02372",41.89 ± 1.3 mN/m
same,surface tension liquid-gas,"293.15 K, x1 = 0.03998",37.6 ± 1.2 mN/m
same,surface tension liquid-gas,"293.15 K, x1 = 0.06011",36 ± 1.1 mN/m
same,surface tension liquid-gas,"293.15 K, x1 = 0.07276",35.06 ± 1.1 mN/m
same,surface tension liquid-gas,"293.15 K, x1 = 0.1253",33.88 ± 1.1 mN/m
same,surface tension liquid-gas,"293.15 K, x1 = 0.1749",32.18 ± 1 mN/m
same,surface tension liquid-gas,"293.15 K, x1 = 0.2503",31.82 ± 0.99 mN/m
same,surface tension liquid-gas,"293.15 K, x1 = 0.3515",30.73 ± 0.96 mN/m
same,surface tension liquid-gas,"293.15 K, x1 = 0.4018",30.23 ± 0.95 mN/m
same,surface tension liquid-gas,"293.15 K, x1 = 0.5038",30.22 ± 0.95 mN/m
same,surface tension liquid-gas,"293.15 K, x1 = 0.608",29.73 ± 0.93 mN/m
same,surface tension liquid-gas,"293.15 K, x1 = 0.712",29.66 ± 0.93 mN/m
same,surface tension liquid-gas,"293.15 K, x1 = 0.7503",29.29 ± 0.92 mN/m
same,surface tension liquid-gas,"293.15 K, x1 = 0.8542",28.8 ± 0.9 mN/m
same,surface tension liquid-gas,"293.15 K, x1 = 1",27.99 ± 0.88 mN/m
same,surface tension liquid-gas,"298.15 K, x1 = 0.00104",60.8 ± 1.9 mN/m
same,surface tension liquid-gas,"298.15 K, x1 = 0.00111",60.7 ± 1.9 mN/m
same,surface tension liquid-gas,"298.15 K, x1 = 0.0013",59.88 ± 1.9 mN/m
same,surface tension liquid-gas,"298.15 K, x1 = 0.00336",52.59 ± 1.6 mN/m
same,surface tension liquid-gas,"298.15 K, x1 = 0.00503",51.41 ± 1.6 mN/m
same,surface tension liquid-gas,"298.15 K, x1 = 0.00679",47.43 ± 1.5 mN/m
same,surface tension liquid-gas,"298.15 K, x1 = 0.02372",40.85 ± 1.3 mN/m
same,surface tension liquid-gas,"298.15 K, x1 = 0.03998",36.88 ± 1.1 mN/m
same,surface tension liquid-gas,"298.15 K, x1 = 0.06011",35.23 ± 1.1 mN/m
same,surface tension liquid-gas,"298.15 K, x1 = 0.07276",34.59 ± 1.1 mN/m
same,surface tension liquid-gas,"298.15 K, x1 = 0.1253",33.18 ± 1 mN/m
same,surface tension liquid-gas,"298.15 K, x1 = 0.1749",31.58 ± 0.99 mN/m
same,surface tension liquid-gas,"298.15 K, x1 = 0.2503",31.21 ± 0.98 mN/m
same,surface tension liquid-gas,"298.15 K, x1 = 0.3515",30.22 ± 0.95 mN/m
same,surface tension liquid-gas,"298.15 K, x1 = 0.4018",29.73 ± 0.93 mN/m
same,surface tension liquid-gas,"298.15 K, x1 = 0.5038",29.72 ± 0.93 mN/m
same,surface tension liquid-gas,"298.15 K, x1 = 0.608",29.23 ± 0.92 mN/m
same,surface tension liquid-gas,"298.15 K, x1 = 0.712",29.15 ± 0.91 mN/m
same,surface tension liquid-gas,"298.15 K, x1 = 0.7503",28.8 ± 0.9 mN/m
same,surface tension liquid-gas,"298.15 K, x1 = 0.8542",28.41 ± 0.89 mN/m
same,surface tension liquid-gas,"298.15 K, x1 = 1",27.6 ± 0.87 mN/m
same,binary diffusion coefficient,"298.15 K, x1 = 0.00427",6.17e-10 m2/s
same,binary diffusion coefficient,"298.15 K, x1 = 0.01425",4.95e-10 m2/s
same,binary diffusion coefficient,"298.15 K, x1 = 0.03523",2.95e-10 m2/s
same,binary diffusion coefficient,"298.15 K, x1 = 0.05087",2.23e-10 m2/s
same,binary diffusion coefficient,"298.15 K, x1 = 0.05118",2.22e-10 m2/s
same,binary diffusion coefficient,"298.15 K, x1 = 0.07013",1.58e-10 m2/s
same,binary diffusion coefficient,"298.15 K, x1 = 0.09711",1.32e-10 m2/s
same,binary diffusion coefficient,"298.15 K, x1 = 0.1004",1.26e-10 m2/s
same,binary diffusion coefficient,"298.15 K, x1 = 0.1467",1.07e-10 m2/s
same,viscosity,"298.15 K, x1 = 0.01005",1.201 ± 0.019 mPa·s
same,viscosity,"298.15 K, x1 = 0.02016",1.536 ± 0.024 mPa·s
same,viscosity,"298.15 K, x1 = 0.03",1.949 ± 0.03 mPa·s
same,viscosity,"298.15 K, x1 = 0.04005",2.421 ± 0.037 mPa·s
same,viscosity,"298.15 K, x1 = 0.05946",3.473 ± 0.054 mPa·s
same,viscosity,"298.15 K, x1 = 0.06152",3.51 ± 0.054 mPa·s
same,viscosity,"298.15 K, x1 = 0.07026",4.128 ± 0.064 mPa·s
same,viscosity,"298.15 K, x1 = 0.08762",5.181 ± 0.081 mPa·s
same,viscosity,"298.15 K, x1 = 0.09008",5.347 ± 0.084 mPa·s
same,viscosity,"298.15 K, x1 = 0.11",6.615 ± 0.1 mPa·s
same,viscosity,"298.15 K, x1 = 0.12",7.243 ± 0.11 mPa·s
same,viscosity,"298.15 K, x1 = 0.1301",7.863 ± 0.12 mPa·s
same,viscosity,"298.15 K, x1 = 0.1401",8.511 ± 0.14 mPa·s
